{"source": "patent US6723736B2", "about": "“Tricyclic compounds and uses thereof” (Theracos, Inc., priority 2000, dated 2004)", "key": {"IL-6 production": {"system": "IL-6 production", "assay": "Inhibition of LPS-induced IL-6 production in RAW264.7 cells (ELISA)", "format": "cell-based, murine", "settings": "RAW264.7, 1-100 μM compound 1 hr pre-incubation, LPS 0.1 μg/ml 6 hr", "experimental": "(§1) The ability of compound B to inhibit IL-6 production was also examined in LPS-stimulated RAW cells. RAW264.7 cells were grown in RPMI-1640 medium containing 3% FBS and pre-incubated for 1 hr at 37° C. with varying concentrations (1, 3, 10, 30 or 100 μM) of compound B. LPS (0.1 μg/ml) was then added, and the cells were further incubated for 6 hr at 37° C. in a 5% carbon dioxide atmosphere. Cell supernatants were then collected, aliquoted, and assayed for IL-6 by ELISA with anti-IL-6 antibody."}, "TNF-alpha production": {"system": "TNF-alpha production", "assay": "Inhibition of LPS-induced TNF-alpha production in RAW264.7 cells (ELISA)", "format": "cell-based, murine", "settings": "RAW264.7, 1-100 μM compound 1 hr pre-incubation, LPS 0.1 μg/ml 6 hr", "experimental": "as §1, with “TNF-alpha” for “IL-6”, “was” for “was also”, “a standard in vitro model of inflammation—the murine macrophage-like cell line RAW264.7 stimulated with lipopolysaccharides (LPS).” for “LPS-stimulated RAW cells.”, “anti-TNF-alpha” for “anti-IL-6”"}, "[1]": {"system": "Human peripheral blood mononuclear cells (PBMC)", "assay": "PBMC cell viability (MTS dye exclusion assay)", "format": "cell-based", "settings": "20 hr, 1-100 μM", "experimental": "(§2) Human peripheral blood mononuclear cells (PBMC) were purified from human blood using Ficoll-Paque PLUS separation medium (Amersham Pharmacia Biotech) according to the manufacturer's recommended protocol. After centrifugation, the central PBMC layer was collected, washed twice with phosphate buffered saline (PBS) and then plated in a 96-well plate at a density of 2×10^5 cells/well in RPMI-1640 medium containing 10% FBS. The cells were preincubated with dexamethasone (1 μM) or Compound B (1, 10, 30 or 100 μM) for 1 hr and then challenged with LPS (1 μg/ml) for 20 hr. Cells receiving no drug treatment, incubated with or without LPS, served as controls. The cell supernatants were collected, and the amount of IL-10 in each was measured by standard ELISA. […] To confirm that the observed decrease in IL-10 was not due to cytotoxicity, the PBMC were plated in a separate plate, incubated for 20 hr with the same range of doses of Compound B, and the cell viability was assessed by a standard MTS dye exclusion assay (4-hr incubation with MTS)."}, "COX-1": {"target": "T1, COX-1 (Mus musculus, UniProt P22437)", "T1 construct": "having no effect on the constitutively expressed COX-1 activity; endogenous in cells; host or cells: RAW264.7 cells, then lysed", "T1 sequence (P22437 27-602)": "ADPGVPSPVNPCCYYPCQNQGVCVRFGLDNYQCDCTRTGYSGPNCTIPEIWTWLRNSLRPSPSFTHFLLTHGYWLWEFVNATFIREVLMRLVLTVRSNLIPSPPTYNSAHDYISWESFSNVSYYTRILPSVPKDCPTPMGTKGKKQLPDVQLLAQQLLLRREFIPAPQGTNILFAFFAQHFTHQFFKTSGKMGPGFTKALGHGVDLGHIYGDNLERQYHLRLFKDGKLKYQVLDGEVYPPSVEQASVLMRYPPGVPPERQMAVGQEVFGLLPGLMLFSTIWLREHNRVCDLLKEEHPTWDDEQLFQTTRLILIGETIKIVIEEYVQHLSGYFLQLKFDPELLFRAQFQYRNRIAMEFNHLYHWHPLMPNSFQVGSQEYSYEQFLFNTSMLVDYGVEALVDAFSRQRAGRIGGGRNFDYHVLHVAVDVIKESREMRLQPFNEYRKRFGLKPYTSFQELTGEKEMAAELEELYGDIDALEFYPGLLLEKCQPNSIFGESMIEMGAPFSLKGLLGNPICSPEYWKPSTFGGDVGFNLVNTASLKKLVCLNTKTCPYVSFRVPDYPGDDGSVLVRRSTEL", "assay": "Constitutive COX-1 activity in RAW264.7 cells (TXB2 EIA)", "format": "cell-based, murine", "settings": "RAW264.7, LPS 0.1 μg/ml 6 hr; higher concentrations of compound B (1-100 μM tested); dexamethasone 1 μM", "experimental": "(§3) In this experiment, the inhibitory effect of compound B was compared to that of dexamethasone, a potent inhibitor of COX-2 expression. RAW264.7 cells were grown in RPMI-1640 medium containing 3% FBS and pre-incubated for 1 hr at 37° C. with compound B (1, 3, 10, 30 or 100 μM), dexamethasone (Dex, 1 μM), or without drug. After 1 hr LPS (0.1 μg/ml) was added, and the cells were further incubated for 6 hr at 37° C. Control cells received neither drug nor LPS. Cells were collected, lysed and assayed for cyclooxygenase activities essentially according to the method of Brideau et al. (Inflamm Res 45:68-74, 1996). COX-2 activity was measured using the Biotrak Prostaglandin E2 (PGE2) EIA Kit, and COX-1 activity was determined using the Biotrak Thromboxane B2 (TXB2) EIA Kit, both from Amersham Pharmacia Biotech (Piscataway, N.J.)."}, "IL-10 production": {"system": "IL-10 production", "assay": "Inhibition of LPS-induced IL-10 production in human PBMC (ELISA)", "format": "cell-based", "settings": "human PBMC, 1, 10, 30 or 100 μM 1 hr preincubation, LPS 1 μg/ml 20 hr", "experimental": "as §2"}, "COX-2": {"target": "T2, COX-2 (Mus musculus, UniProt Q05769)", "T2 construct": "examined in LPS-stimulated RAW cells; endogenous in cells; host or cells: RAW264.7 cells, LPS-stimulated (0.1 µg/ml, 6 hr), then lysed", "T2 sequence (Q05769 18-604)": "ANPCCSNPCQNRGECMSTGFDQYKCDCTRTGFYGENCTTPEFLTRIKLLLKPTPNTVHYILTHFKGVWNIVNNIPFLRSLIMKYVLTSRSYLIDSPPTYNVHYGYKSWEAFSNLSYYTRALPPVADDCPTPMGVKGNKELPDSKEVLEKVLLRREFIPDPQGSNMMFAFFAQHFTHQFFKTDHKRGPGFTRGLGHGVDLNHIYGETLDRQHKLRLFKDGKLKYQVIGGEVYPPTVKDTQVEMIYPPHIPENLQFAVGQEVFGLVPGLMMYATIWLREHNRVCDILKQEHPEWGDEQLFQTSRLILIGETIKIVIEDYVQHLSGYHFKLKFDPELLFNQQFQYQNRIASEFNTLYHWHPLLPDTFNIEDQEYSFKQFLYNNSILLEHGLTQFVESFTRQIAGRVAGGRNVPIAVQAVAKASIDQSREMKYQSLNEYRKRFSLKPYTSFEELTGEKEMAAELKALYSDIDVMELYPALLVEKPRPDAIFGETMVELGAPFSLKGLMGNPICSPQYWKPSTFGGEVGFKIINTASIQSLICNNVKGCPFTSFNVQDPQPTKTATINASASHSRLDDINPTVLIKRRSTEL", "assay": "LPS-induced COX-2 activity in RAW264.7 cells (PGE2 EIA)", "format": "cell-based, murine", "settings": "RAW264.7, LPS 0.1 μg/ml 6 hr; higher concentrations of compound B (1-100 μM tested); dexamethasone 1 μM", "experimental": "as §3"}, "[2]": {"system": "TNF-alpha induced killing of WEHI-13VAR cells", "assay": "Inhibition of TNF-alpha induced cell killing (MTT viability)", "format": "cell-based, mouse", "experimental": "Compounds B and E were tested for their ability to inhibit TNF-alpha induced killing of cultured mouse fibrosarcoma cells. WEHI-13VAR cells were grown in buffered RPMI-1640 medium containing 3% FBS and assayed for TNF-alpha induced cell death as described by Khabar et al. (Immunol Lett 46:107-10, 1995). Cells were co-incubated for 20 hr with 100 pg/ml (FIG. 1A) or 1 pg/ml (FIG. 1B) of TNF-alpha and 100 μg/ml of berberine, compound B or compound E. Controls included cells receiving TNF-alpha but no drug, as well as cells receiving no TNF-alpha and treated with or without NP-40 lysis buffer. Cell viability was assayed using the dye MTT (3-(4,5-dimethylthiozol-2-yl)-2,5-diphenyl tetrazolium bromide) as described.\nThe dose response was measured for the ability of compound B to inhibit TNF-alpha induced killing of cultured mouse fibrosarcoma cells. In this experiment, the inhibitory action of compound B was compared to that of a chimeric recombinant protein dimer containing soluble TNF receptor fused to the Fc portion of immunoglobulin heavy chain (Mohler KM et al., J Immunol 151:1548-61,1993), a known antagonist of TNF-alpha mediated cell killing. WEHI-13VAR cells were grown in buffered RPMI-1640 medium containing 3% FBS and assayed for TNF-alpha induced cell death as described by Khabar et al. (Immunol Lett 46:107-10, 1995). […]"}, "[3]": {"system": "collagen-induced arthritis in male DBA/1 Lac mice", "assay": "Suppression of collagen-induced arthritis in mice", "format": "in vivo", "settings": "50 mg/kg orally daily for 17 days, compared to vehicle-treated group", "experimental": "The ability of compound B to reduce inflammation in an animal model of arthritis was also studied. Arthritis was induced by intradermal administration of collagen (100 μg/mice) in complete adjuvant in male DBA/1 Lac mice 7 weeks old. The booster immunization (100 μg/mice) in incomplete adjuvant was given subcutaneously on day 21. Two days later, when arthritic scores were around 1, animals were divided into two groups. One group received 50 mg/kg dose of compound B orally for 17 days daily. The second group received 10% PEG in water and was used as a vehicle-treated group. Body weight (FIG. 6, panel A), clinical score (FIG. 6, panel B), the number of joints affected (FIG. 6, panel C) and paw thickness (FIG. 6, panel D) were monitored 24 hours after drug administration during the treatment period."}}, "data": [{"smiles": "COc1ccc(-c2ncc3c(OC)c(OC)ccc3c2O)cc1", "note": "[Compound B]", "values": [{"measurement": "inhibition of LPS-induced IL-6 production", "setting": "IL-6 production", "value": "up to 60%"}, {"measurement": "inhibition of LPS-induced TNF-alpha production", "setting": "TNF-alpha production", "value": "~50", "unit": "%"}, {"measurement": "loss in cell viability (cytotoxicity)", "setting": "[1]", "value": "no significant loss in cell viability"}, {"measurement": "effect on constitutively expressed COX-1 activity", "setting": "COX-1", "value": "no effect"}, {"measurement": "inhibition of LPS-induced IL-10 production", "setting": "IL-10 production", "value": "dose-dependent inhibition"}, {"measurement": "effect on inducible COX-2 activity", "setting": "COX-2", "value": "completely and selectively abrogated"}, {"measurement": "concentration at which the maximal inhibitory effect on TNF-alpha induced cell killing was attained", "setting": "[2]; 100 pg/ml or 50 pg/ml TNF-alpha, 20 hr, inhibition proportional to dose up to this concentration", "value": 10, "unit": "µM"}, {"measurement": "inhibition of TNF-alpha induced cell killing (increased cell viability)", "setting": "[2]; 100 μg/ml compound, 100 pg/ml or 1 pg/ml TNF-alpha, 20 hr co-incubation, relative to untreated or berberine-treated cells", "value": "inhibited TNF-alpha induced cell killing"}, {"measurement": "body weight", "setting": "[3]", "value": "No change in body weight"}, {"measurement": "clinical score", "setting": "[3]", "value": "significantly lower clinical scores"}, {"measurement": "number of joints affected", "setting": "[3]", "value": "fewer joints affected"}, {"measurement": "paw thickness", "setting": "[3]", "value": "reduced paw thickness"}]}]}
